This note sets out measurements from patent publication US20140107109A1, “AMINO-DIHYDROTHIAZINE AND AMINO-DIOXIDO DIHYDROTHIAZINE COMPOUNDS AS BETA-SECRETASE ANTAGONISTS AND METHODS OF USE” (Amgen Inc., priority 2012, published 2014).

As a reminder, the IC50 is the concentration needed to halve the response being measured.

In experiment [1] the target is Beta Secretase enzyme (BACE1) (Homo sapiens, UniProt P56817). Put plainly: In vitro enzymatic BACE FRET assay. Format: biochemical. Conditions: average IC50, enzyme assay; read-out: BACE1 FRET assay IC50. In a few lines:
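Readout: dequenched fluorescence (ex 488 nm/[…]) after neutralizing with Tris buffer. Reactions, begun by adding 50 nM quenched peptide substrate spanning the BACE cleavage site, were incubated one hour at pH 4.2 in 0.05 M acetate with 100 uM genapol and 10% final DMSO.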

Experiment [2] relates to Aβ40 in conditioned medium of cells stably expressing Amyloid Precursor Protein (APP). In words: In vitro BACE cell-based assay (HEK cell assay), Aβ40 sandwich ELISA. Conditions: Homo sapiens, HEK293; average IC50, HEK cell assay. In a few lines:
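Aβ40 in conditioned medium was quantified by time-resolved fluorescence sandwich ELISA (pAb40 capture 3 h at 4 °C, biotin-6E10 detection 2 h at 4 °C) after 24 h compound exposure of APP-expressing cells. Doses spanned 10 points from 100 μM or 10 μM top, 0.1% DMSO; IC50 was derived from percent of control.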

The target in another experiment is T1, Cathepsin D (Cat D) (Homo sapiens, UniProt P07339).
T1 construct: Recombinant Cat D was expressed in CHO cells; made in house; host or cells: CHO cells
Put plainly: In vitro enzymatic Cathepsin D (Cat D) FRET assay. The following applies: read-out: CatD IC50. The class given is biochemical. An outline of the steps:
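FRET read-out: a fluorophore/quencher-labelled peptide substrate is cleaved by 9 nM Cat D (recombinant, CHO-expressed) following a one-hour preincubation with inhibitor dilutions in DMSO. Tris buffer added to neutralize pH ends the reaction before fluorescence measurement.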

T1 sequence (P07339 65-412, species assumed): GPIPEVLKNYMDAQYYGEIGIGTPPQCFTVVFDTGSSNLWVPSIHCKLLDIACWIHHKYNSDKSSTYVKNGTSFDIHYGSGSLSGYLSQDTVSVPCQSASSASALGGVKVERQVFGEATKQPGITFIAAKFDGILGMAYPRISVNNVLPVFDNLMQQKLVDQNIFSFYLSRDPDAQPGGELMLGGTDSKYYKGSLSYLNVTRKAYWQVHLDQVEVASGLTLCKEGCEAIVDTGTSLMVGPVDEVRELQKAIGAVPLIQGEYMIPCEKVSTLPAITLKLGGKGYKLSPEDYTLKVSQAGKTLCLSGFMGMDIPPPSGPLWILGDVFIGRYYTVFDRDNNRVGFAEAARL
Beta Secretase enzyme (BACE1), sequence (P56817 46-501): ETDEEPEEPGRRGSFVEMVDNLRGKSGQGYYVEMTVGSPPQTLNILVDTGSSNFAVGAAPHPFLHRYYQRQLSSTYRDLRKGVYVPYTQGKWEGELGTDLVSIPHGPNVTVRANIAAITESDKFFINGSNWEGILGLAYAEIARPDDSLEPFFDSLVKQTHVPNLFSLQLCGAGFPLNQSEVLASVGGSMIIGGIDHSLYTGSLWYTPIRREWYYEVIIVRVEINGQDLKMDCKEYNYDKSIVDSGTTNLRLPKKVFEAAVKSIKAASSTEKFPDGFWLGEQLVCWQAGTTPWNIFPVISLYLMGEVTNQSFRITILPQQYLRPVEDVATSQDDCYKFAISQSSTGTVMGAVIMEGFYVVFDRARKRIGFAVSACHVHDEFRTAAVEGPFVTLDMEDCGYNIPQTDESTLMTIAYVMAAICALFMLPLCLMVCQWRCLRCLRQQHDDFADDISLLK

For `CC1(C)C(N)=N[C@](C)(c2cc(Oc3ncc(C(N)=O)cc3F)ccc2F)CS1(=O)=O` [Example 300, 6-(3-((3R)-5-amino-3,6,6-trimethyl 1,1-dioxido-3,6-dihydro-2H-1,4-thiazin-3-yl)-4-fluorophenoxy)-5-fluoro-3-pyridinecarboxamide], the IC50 in experiment [1] was found to be 0.897 µM; in experiment [2], 1.18 µM; on Cathepsin D (Cat D), 717 µM.
For `Cc1nc2c(Oc3ccc(F)c([C@]4(C)CS(=O)(=O)C(C)(C)C(N)=N4)c3)nccc2s1` [Example 302, (5R)-5-(2-fluoro-5-((2-methyl[1,3]thiazolo[4,5-c]pyridin-4-yl)oxy)phenyl)-2,2,5-trimethyl-5,6-dihydro-2H-1,4-thiazin-3-amine 1,1-dioxide], in that order: 3.49 µM, 2.87 µM and 241 µM.
The corresponding values for `COc1cnc2c(Oc3ccc(F)c([C@]4(C)CS(=O)(=O)C(C)(C)C(N)=N4)c3)nccc2n1` [Example 303, (5R)-5-(2-fluoro-5-((2-methoxypyrido[3,4-b]pyrazin-5-yl)oxy)phenyl)-2,2,5-trimethyl-5,6-dihydro-2H-1,4-thiazin-3-amine 1,1-dioxide] are 1.22 µM, 2.54 µM and 1000 µM.
For `CC1(C)C(N)=N[C@](C)(c2cc(Oc3nccc4cc(Cl)cnc34)ccc2F)CS1(=O)=O` [Example 304, (5R)-5-(5-((3-chloro-1,7-naphthyridin-8-yl)oxy)-2-fluorophenyl)-2,2,5-trimethyl-5,6-dihydro-2H-1,4-thiazin-3-amine 1,1-dioxide], in that order: 0.127 µM, 0.198 µM and 282 µM.
Regarding `CC1(C)C(N)=N[C@](C)(c2cc(Oc3ncccc3C#N)ccc2F)CS1(=O)=O` [Example 306, 2-(3-((3R)-5-amino-3,6,6-trimethyl-1,1-dioxido-3,6-dihydro-2H-1,4-thiazin-3-yl)-4-fluorophenoxy)-3-pyridinecarbonitrile], the values for the IC50 (in experiment [1]; in experiment [2]; at Cathepsin D (Cat D)) were 0.256 µM, 0.241 µM and 218 µM, respectively.
In the case of `CC1(C)C(N)=N[C@](C)(c2cc(Oc3nccc(C#N)c3Cl)ccc2F)CS1(=O)=O` [Example 307, 2-(3-((3R)-5-amino-3,6,6-trimethyl-1,1-dioxido-3,6-dihydro-2H-1,4-thiazin-3-yl)-4-fluorophenoxy)-3-chloro-4-pyridinecarbonitrile], the 50% inhibitory concentration (IC50) in experiment [1] was determined as 0.168 µM; in experiment [2] it was 0.258 µM; on Cathepsin D (Cat D) it was 298 µM.
For `CC1(C)C(N)=N[C@](C)(c2cc(Oc3c(C#N)ccnc3Cl)ccc2F)CS1(=O)=O` [Example 308, 3-(3-((3R)-5-amino-3,6,6-trimethyl-1,1-dioxido-3,6-dihydro-2H-1,4-thiazin-3-yl)-4-fluorophenoxy)-2-chloro-4-pyridinecarbonitrile], in that order: 4.16 µM, 3.27 µM and 224 µM.
Regarding `COc1ccnc(Oc2ccc(F)c([C@]3(C)CS(=O)(=O)C(C)(C)C(N)=N3)c2)n1` [Example 309, (5R)-5-(2-fluoro-5-((4-methoxy-2-pyrimidinyl)oxy)phenyl)-2,2,5-trimethyl-5,6-dihydro-2H-1,4-thiazin-3-amine 1,1-dioxide], the results for the half-maximal inhibitory concentration (IC50) (in experiment [1]; in experiment [2]; on Cathepsin D (Cat D)) were 0.101 µM, 0.0751 µM and 274 µM, respectively.
Regarding `Cc1ccnc(Oc2ccc(F)c([C@]3(C)CS(=O)(=O)C(C)(C)C(N)=N3)c2)c1C#N` [Example 310, 2-(3-((3R)-5-amino-3,6,6-trimethyl-1,1-dioxido-3,6-dihydro-2H-1,4-thiazin-3-yl)-4-fluorophenoxy)-4-methyl-3-pyridinecarbonitrile], the IC50 in experiment [1] came to 1.34 µM; in experiment [2], 0.931 µM; on Cathepsin D (Cat D), 444 µM.
In the case of `Cc1c(C(F)(F)F)ccnc1Oc1ccc(F)c([C@]2(C)CS(=O)(=O)C(C)(C)C(N)=N2)c1` [Example 311, (5R)-5-(2-fluoro-5-((3-methyl-4-(trifluoromethyl)-2-pyridinyl)oxy)phenyl)-2,2,5-trimethyl-5,6-dihydro-2H-1,4-thiazin-3-amine 1,1-dioxide], the half-maximal inhibitory concentration (IC50) came to 2.57 µM in experiment [1], 2.39 µM in experiment [2] and 401 µM at Cathepsin D (Cat D).
For `CC1(C)C(N)=N[C@](C)(c2cc(Oc3nccc(C(F)(F)F)c3C#N)ccc2F)CS1(=O)=O` [Example 312, 2-(3-((3R)-5-amino-3,6,6-trimethyl-1,1-dioxido-3,6-dihydro-2H-1,4-thiazin-3-yl)-4-fluorophenoxy)-4-(trifluoromethyl)-3-pyridinecarbonitrile], in that order: 2.89 µM, 1.59 µM and 771 µM.
For the molecule `CC1(C)C(N)=N[C@](C)(c2cc(NC(=O)c3cnc(C(F)F)cn3)ccc2F)CS1(=O)=O` [Example 313, N-(3-((3R)-5-amino-3,6,6-trimethyl-1,1-dioxido-3,6-dihydro-2H-1,4-thiazin-3-yl)-4-fluorophenyl)-5-(difluoromethyl)-2-pyrazinecarboxamide], the IC50 was determined as 0.00292 µM in experiment [1], 0.0063 µM in experiment [2] and 887 µM on Cathepsin D (Cat D).
For `CC1(C)C(N)=N[C@](C)(c2cc(NC(=O)c3cnc(OCC(F)F)cn3)ccc2F)CS1(=O)=O` [Example 314, N-(3-((3R)-5-amino-3,6,6-trimethyl-1,1-dioxido-3,6-dihydro-2H-1,4-thiazin-3-yl)-4-fluorophenyl)-5-(2,2-difluoroethoxy)-2-pyrazinecarboxamide], in that order: 0.00058 µM, 0.005 µM and 504 µM.
In the case of `CC1(C)C(N)=N[C@](C)(c2cc(NC(=O)c3ccc4ccccc4n3)ccc2F)CS1(=O)=O` [Example 315, N-(3-((3R)-5-amino-3,6,6-trimethyl-1,1-dioxido-3,6-dihydro-2H-1,4-thiazin-3-yl)-4-fluorophenyl)-2-quinolinecarboxamide], the IC50 in experiment [1] turned out to be 0.0376 µM; in experiment [2], 0.0253 µM; on Cathepsin D (Cat D), 253 µM.
For `CC1(C)C(N)=N[C@](C)(c2cc(NC(=O)c3cnc4ccccc4n3)ccc2F)CS1(=O)=O` [Example 316, N-(3-((3R)-5-amino-3,6,6-trimethyl-1,1-dioxido-3,6-dihydro-2H-1,4-thiazin-3-yl)-4-fluorophenyl)-2-quinoxalinecarboxamide], in that order: 0.0412 µM, 0.018 µM and 36.6 µM.
For `CC#CCOc1cnc(C(=O)Nc2ccc(F)c([C@]3(C)CS(=O)(=O)[C@@](C)(F)C(N)=N3)c2)cn1` [Example 317, N-(3-((3R,6R)-5-amino-6-fluoro-3,6-dimethyl-1,1-dioxido-3,6-dihydro-2H-1,4-thiazin-3-yl)-4-fluorophenyl)-5-(2-butyn-1-yloxy)-2-pyrazinecarboxamide], in that order: 0.00021 µM, 0.0036 µM and greater than 133 µM.
On to `COc1ccc(C(=O)Nc2ccc(F)c([C@]3(C)CS(=O)(=O)[C@@](C)(F)C(N)=N3)c2)nc1` [Example 318, N-(3-((3R,6R)-5-amino-6-fluoro-3,6-dimethyl-1,1-dioxido-3,6-dihydro-2H-1,4-thiazin-3-yl)-4-fluorophenyl)-5-methoxy-2-pyridinecarboxamide], for which the 50% inhibitory concentration (IC50) in experiment [1] is 0.0018 µM; in experiment [2], 0.0688 µM; at Cathepsin D (Cat D), greater than 400 µM.
The corresponding values for `C[C@]1(F)C(N)=N[C@](C)(c2cc(NC(=O)c3ccc(C(F)F)cn3)ccc2F)CS1(=O)=O` [Example 319, N-(3-((3R,6R)-5-amino-6-fluoro-3,6-dimethyl-1,1-dioxido-3,6-dihydro-2H-1,4-thiazin-3-yl)-4-fluorophenyl)-5-(difluoromethyl)-2-pyridinecarboxamide] are 0.00162 µM, 0.07 µM and greater than 400 µM.
For `C[C@]1(F)C(N)=N[C@](C)(c2cc(NC(=O)c3ncc(Cl)cc3F)ccc2F)CS1(=O)=O` [Example 320, N-(3-((3R,6R)-5-amino-6-fluoro-3,6-dimethyl-1,1-dioxido-3,6-dihydro-2H-1,4-thiazin-3-yl)-4-fluorophenyl)-5-chloro-3-fluoro-2-pyridinecarboxamide], in that order: 0.0008 µM, 0.0789 µM and greater than 400 µM.
The corresponding values for `Cc1cc(OC(F)F)cnc1C(=O)Nc1ccc(F)c([C@]2(C)CS(=O)(=O)[C@@](C)(F)C(N)=N2)c1` [Example 321, N-(3-((3R,6R)-5-amino-6-fluoro-3,6-dimethyl-1,1-dioxido-3,6-dihydro-2H-1,4-thiazin-3-yl)-4-fluorophenyl)-5-(difluoromethoxy)-3-methyl-2-pyridinecarboxamide] are 0.00072 µM, 0.0449 µM and 387 µM.
With `C[C@]1(F)C(N)=N[C@](C)(c2cc(NC(=O)c3ccc(F)cn3)ccc2F)CS1(=O)=O` [Example 322, N-(3-((3R,6R)-5-amino-6-fluoro-3,6-dimethyl-1,1-dioxido-3,6-dihydro-2H-1,4-thiazin-3-yl)-4-fluorophenyl)-5-fluoro-2-pyridinecarboxamide], the values for the IC50 (in experiment [1]; in experiment [2]; at Cathepsin D (Cat D)) were 0.00195 µM, 0.134 µM and 1220 µM, respectively.
